Measurements published in patent US20060014709A1, “Drug or cosmetic” (priority 2002, published 2006).
Where “and” joins values, the source holds several entries; their conditions need not be identical. Equal values may be shown once. Entries after “also recorded” stand apart in the source; their conditions may differ.

System: male SD rats, obstruction-released kidney (glomerular lesions and tubulointerstitial lesions)
Test: Obstruction release model after complete obstruction of unilateral ureter for 14 days (Example 2-1)
Format: in vivo
Set-up: key to Tubulointerstitial lesions: level of lesions (quality): summed lesion score: + = 1, ++ = 2, +++ = 3 points
Conditions: rat
Excerpt: That is, the rat was laparotomized under anesthesia with ether and left ureter was ligated with 7-0 Nylon at the height of the margin of lower pole of kidney to close the abdomen. On the 14th day after obstruction, the obstruction was released and urinary passage was reconstructed using a cuff. Thus, after 14 days, the part of ligated obstructed ureter was resected, a polyethylene tube of 25 gages (manufactured by Nippon Sherwood) was used as a cuff and inserted into and retained at the lumen from the cut end of the lower normal ureter, then the cuff was also retained in the expanded upper ureter and each of them was ligated and fixed by 7-0 Nylon to reconstruct the urinary passage. At the same time, the right kidney at the opposite side was excised. After the release of the obstruction, body weight was measured, blood was drawn on the 2nd day, 5th day and 7th day from the release to measure serum creatinine, then the rat was killed under anesthesia and the left obstruction-released kidney was excised.
With regard to the excised kidney, there were carried out measurements of weight of the kidney, creatinine concentration mg/dl in plasma as an indicator of kidney function and pathological test for the kidney, and also leukocyte cells which infiltrate the obstruction-released kidney were immunopathologically studied with cell surface markers for ED1 macrophages, CD11b (ED8) positive macrophages and CD5 positive lymphocytes. A number of positive cells was expressed as a number of cells per glomerulus from measured numbers of positive cells in five glomeruli, and for a number in tubulointerstitial tissue, it was expressed by the total number of cells existing in five fields of 200×magnification. For macrophages, a number of CD11b positive cells existing in glomerulus was considered as a number of CD11b^+CD2^+ macrophages and a case of existing not less than one positive cell per glomerulus was considered as positive (+). In the tubulointerstitial tissue, a number of […] 60 CD11b positive cells was considered as positive (+), or a case of CD11b^−CD2^+ macrophages dominantly increasing. Scoring of evaluation of tubulointerstitial lesions was as follows: + gets 1-point as a light lesion; ++ gets 2-point as a moderate lesion; and +++ gets3-point as a severe lesion. For glomerular lesions, when a proportion of lesioned glomeruli was decreased to not more than 40%, and for tubulointerstitial lesions, when a score of the lesions was not more than 4, it was considered as improved.
For glomerular lesions, by counting glomeruli causing thickening of Bowman's capsule wall and glomerular hyalinosis, a proportion of glomeruli having lesions was calculated. For tubulointerstitial lesions, by qualifying hyperplasia of tubular basement membrane and interstitial fibrosis, levels of the lesions were represented.
An in vivo biological test was carried out for the γ-lactone derivative according to the present invention using this model. Bulk powder of a test compound was dissolved in sterile physiological saline together with gum arabic, and concentrations of the test compound and gum arabic were adjusted to 30 mg/mL and 5% respectively. The preparation was administered orally or subcutaneously injected at the dose of 30 mg/kg or 3 mg/kg every day. The administration was conducted for the total 21 days of the obstructed period for 14 days and after release of the obstruction for 7 days.
For test groups, a group administered single compound group, a group administered both compound group and a control group administered solution of gum arabic were set up and compared for renal functions and morphological evaluations, as well as numbers of ED1, CD5, CD11b positive cells by means of immunopathology.

[1] = 30 mg/kg subcutaneously every day for 21 days, one value per animal, 30 mg/kg

O=C1CCC(F)(C(=O)OCc2ccccc2)O1 (stereo not shown) [compound (II-2), 2-fluoro-5-oxotetrahydrofuran-2-carboxylic acid benzyl ester] was tested, and the “cases with increased regeneration-promoting CD11b^+CD2^+ macrophages to glomerular lesions” value (30 mg/kg subcutaneously) was “Regeneration-promoting macrophages were increased on both lesions”, the “cases with increased regeneration-promoting CD11b^−CD2^+ macrophages to tubulointerstitial lesions” value (30 mg/kg subcutaneously) was “Regeneration-promoting macrophages were increased on both lesions” and the “Regeneration CD11b^−CD2^+ macrophages to tubulointerstitial lesions, Determination: increase +” value (30 mg/kg subcutaneously every day for 21 days, one value per animal) was “+ (a number of not more than 60 CD11b positive cells was considered as positive (+))”. For the same molecule, the “Coincidence of two regeneration macrophages being positive” value [1] was “Not coincident; also recorded: Coincident”, the “Glomerular lesions: proportion of lesioned glomeruli (%)” value [1] was 32% and 28% and 19% and 18% and the “Number of regeneration CD11b^+CD2^+ macrophages to glomerular lesions: number of positive cells per glomerulus” value [1] was 0.7 cells per glomerulus and 1.7 cells per glomerulus and 2.3 cells per glomerulus and 1.4 cells per glomerulus. The “Number of regeneration CD11b^−CD2^+ macrophages to tubulointerstitial lesions: number of positive cells (CD11b) in five fields of 200× magnification” value [1] was 33 cells in five fields of 200× m and 35 cells in five fields of 200× m and 27 cells in five fields of 200× m and 16 cells in five fields of 200× m, the “Regeneration CD11b^+CD2^+ macrophages to glomerular lesions, Determination: increase = +” value [1] was “+ (a case of existing not less than one positive cell per glomerulus was considered as positive (+))” and the Serum creatinine [1] was 2.0 mg/dl (2×) and 2.5 mg/dl and 2.3 mg/dl. The “Tubulointerstitial lesions: level of lesions (quality)” value [1] was 4.5 (2×) and 6.5 (2×).
